Converted amounts (≈) assume the structure as drawn. Read-outs that look alike come from different tables or passages of the source.
Tests used:
E. coli DH5α = test: Antibiotic activity by disc diffusion assay (MIC); assay type: cell-based; settings: for MIC: Escherichia coli; for RATE MIC Compound/Doxycycline: ratio of MIC to doxycycline MIC
Method: In order to examine the antibiotic activity of the compounds synthesized in Example 1, an assay was performed using E. coli DH5α (Gram(−)), as a sensitive, indicator strain.
The antibacterial activities of test compounds were evaluated using the disc diffusion method (Kavanagh, F. Dilution methods of antibiotic assays in Analytical Microbiology. 1963; Pomares M F, Vincent P A, Farías R N, Salomón R A. Protective action of ppGpp in microcin J25-sensitive strains. J Bacteriol. 2008-190:4328-34). Briefly, filter-paper discs impregnated with 10 μl of two-fold serial dilutions of the test compounds, and were placed onto LB solid medium Petri dishes. Then, aliquots (50 μl) of an E. coli DH5α culture in stationary phase were mixed with 3 ml of top agar (0.7% agar) and overlaid onto the plates. After overnight incubation at 37° C., the plates were examined for different degrees of inhibition. Inhibition degrees produced by the test compound are expressed as Minimum Inhibitory Concentrations (MICs), defined as the lowest concentration of a compound that inhibit visible growth of bacteria. Each test was performed in duplicate vs. the reference compound Doxycycline.

D2 dopamine receptor = D2 dopamine receptor (Homo sapiens, UniProt P14416); test: D2 receptor agonist assay, cAMP Nomad biosensor, U2OS_cAMPNmd_FP650_D2 cells; assay type: cell-based; settings: 24 h, 10 serial 1:3 dilutions from 30 μM, triplicate
Chain of D2 dopamine receptor (P14416 whole entry): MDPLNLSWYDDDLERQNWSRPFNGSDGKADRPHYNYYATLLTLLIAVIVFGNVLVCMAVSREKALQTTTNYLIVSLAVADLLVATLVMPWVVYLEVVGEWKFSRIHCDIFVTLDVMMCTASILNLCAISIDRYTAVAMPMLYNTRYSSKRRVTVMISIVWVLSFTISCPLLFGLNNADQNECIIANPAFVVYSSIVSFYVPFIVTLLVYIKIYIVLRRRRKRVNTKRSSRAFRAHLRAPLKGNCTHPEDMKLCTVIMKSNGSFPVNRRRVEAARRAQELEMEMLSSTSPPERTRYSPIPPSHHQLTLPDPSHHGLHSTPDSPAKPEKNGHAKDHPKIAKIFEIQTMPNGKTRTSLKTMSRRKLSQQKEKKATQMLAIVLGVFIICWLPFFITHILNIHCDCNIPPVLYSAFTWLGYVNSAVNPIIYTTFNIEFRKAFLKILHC
Method: HEK_cAMPNmd_FP650_D1 and U2OS_cAMPNmd_FP650_D2 cells were seeded at a density of 30.000 and 20.000 cells/well, respectively, in 96-well plates. Cells were maintained in DMEM or DMEM-F12 medium supplemented with 10% FBS during 24 h at 37° C. in a humidified 5% CO2 atmosphere.
Cells were then incubated for 24 h.
To detect Nomad biosensor activation, the assay medium was removed and replaced by […] of DPBS with calcium and magnesium. […] In U2OS_cAMPNmd_FP650_D2 cells, images were acquired using the CellInsight CX7 HCS Platform, and the number of fluorescent vesicles per cell was quantified with the HCS Studio Cell Analysis Software.
The effect of the compounds in the regulation of D1 or D2 receptors' activation was analyzed measuring the CAMP signaling using the Nomad biosensor-based assay.
This same experiment was carried out in the U2OS_cAMPNmd_FP650_D2 cell line (FIG. 10). The effect of the compounds was analyzed quantifying the number of fluorescent vesicles in the cytoplasm of the cells using the HCS Studio Cell Analysis Software.

D1 dopamine receptor = D1 dopamine receptor (Homo sapiens, UniProt P21728); test: D1 receptor agonist assay, cAMP Nomad biosensor, HEK_cAMPNmd_FP650_D1 cells; settings: 24 h, 10 serial 1:3 dilutions from 30 μM, triplicate
Chain of D1 dopamine receptor (P21728 whole entry): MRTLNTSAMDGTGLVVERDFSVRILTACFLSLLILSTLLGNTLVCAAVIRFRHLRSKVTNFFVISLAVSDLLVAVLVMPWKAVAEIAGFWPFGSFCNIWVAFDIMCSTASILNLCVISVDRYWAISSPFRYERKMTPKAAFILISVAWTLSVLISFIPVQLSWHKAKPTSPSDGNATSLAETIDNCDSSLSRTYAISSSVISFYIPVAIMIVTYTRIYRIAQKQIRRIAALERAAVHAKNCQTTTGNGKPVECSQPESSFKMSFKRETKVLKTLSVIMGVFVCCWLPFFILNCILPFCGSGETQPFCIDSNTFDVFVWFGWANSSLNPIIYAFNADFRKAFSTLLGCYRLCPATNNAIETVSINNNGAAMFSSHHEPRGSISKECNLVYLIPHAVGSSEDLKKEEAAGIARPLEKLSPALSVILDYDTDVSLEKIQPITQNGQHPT
Method: To detect Nomad biosensor activation, the assay medium was removed and replaced by 100 ml of DPBS with calcium and magnesium. […] In U2OS_cAMPNmd_FP650_D2 cells, images were acquired using the CellInsight CX7 HCS Platform, and the number of fluorescent vesicles per cell was quantified with the HCS Studio Cell Analysis Software.

SH-SY5Y cells = test: CellROX assay of intracellular reactive oxygen species induced by ASf; assay type: cell-based; settings: 10 μM compound alone, 24 h
Method: In order to characterize the antioxidant properties of D9, its protective action on the AS-induced production of reactive oxygen species (ROS) in a cellular model was assessed. For this, SH-SY5Y cells were treated with fibrils of AS (ASf) (AS incubated 120 h at 37° C. and 600 rpm), and the reactive oxygen species produced were examined using the CellROX® Orange Reagent (Invitrogen), which undergoes oxidation by ROS to form a stable fluorescent compound.
In addition, cells were also treated with doxycycline 10 μM+7 μM ASf (ASf+Doxy) as a positive control, and 10 μM doxycycline alone (Doxy). All conditions were incubated 24 h at 37° C. and 5% CO2. […] Fluorescent images of randomly chosen fields were acquired with identical acquisition parameters using a Zeiss Axio Vert.A1 inverted fluorescence microscope.

[1] = disc diffusion, two-fold serial dilutions from 2 mg/ml, LB solid medium, overnight 37° C., read-out: MIC

SMILES | MIC (E. coli DH5α; [1]) [µg/mL] | RATE MIC Compound/Doxycycline (E. coli DH5α) | MIC (E. coli DH5α) [µg/mL] | EC50, D2 receptor activation (D2 dopamine receptor) | EC50, D1 receptor activation (D1 dopamine receptor) | Intracellular ROS induced by compound alone (SH-SY5Y cells)
C[C@H]1c2cccc(O)c2C(=O)C2=C(O)[C@]3(O)C(=O)C(C(N)=O)=C(O)C(N(C)C)C3[C@@H](O)C21 (some centres unmarked) [Compound D1, Doxycycline Free Form, reference compound] | 31.2 (≈ 70.3 µM) | 1 | – | – | – | –
C[C@H]1c2cccc(O)c2C(=O)C2=C(O)[C@]3(O)C(=O)C(C(N)=O)=C(O)CC3[C@@H](O)C21 (some centres unmarked) [Compound D3, 4-dedimethylaminodoxycycline] | – | 16 | 500 (≈ 1250 µM) | – | – | –
C[C@H]1c2ccc(NC(=O)CCl)c(O)c2C(=O)C2=C(O)[C@]3(O)C(=O)C(C(N)=O)=C(O)CC3[C@@H](O)C21 (some centres unmarked) [Compound D6, 9-(2-chloroacetamido)-4-dedimethylamino doxycycline] | – | 64 | 2000 (≈ 4060 µM) | – | – | –
C[C@H]1c2cccc(O)c2C(=O)C2=C(O)[C@]3(O)C(=O)C(C(N)=O)=C(O)[C@@H](N(C)C)[C@@H]3[C@@H](O)[C@@H]21 [Doxycycline, reference compound] | 31.2 (≈ 70.3 µM) | – | – | – | – | neither the presence of D9 nor doxycycline induced intracellular ROS

Second part, led by results:

MIC (E. coli DH5α; [1]) [µg/mL] | RATE MIC Compound/Doxycycline (E. coli DH5α) | SMILES | MIC (E. coli DH5α) [µg/mL] | EC50, D2 receptor activation (D2 dopamine receptor) | EC50, D1 receptor activation (D1 dopamine receptor) | Intracellular ROS induced by compound alone (SH-SY5Y cells)
1000 (≈ 2240 µM) | 32 | C[C@H]1c2ccc([N+](=O)[O-])c(O)c2C(=O)C2=C(O)[C@]3(O)C(=O)C(C(N)=O)=C(O)CC3[C@@H](O)C21 (some centres unmarked) [Compound D4, 4-dedimethylamino-9-nitro doxycycline] | – | – | – | –
250 (≈ 600 µM) | 8 | C[C@H]1c2ccc(N)c(O)c2C(=O)C2=C(O)[C@]3(O)C(=O)C(C(N)=O)=C(O)CC3[C@@H](O)C21 (some centres unmarked) [Compound D5, 9-amino-4-dedimethylamino doxycycline] | – | did not act as an agonist of the D2 receptor | did not act as an agonist of the D1 receptor | –

Reference: patent US12636371B2, “Chemically coupled transporter for low-hydrophobicity bioactive drugs into the central nervous system” (Skybio LLC, priority 2021, dated 2026)
